PubChem BioAssay AID1919002 (Molecular Pharmacology Branch, DTP, NCI, 2023)
Where “and” joins values, the source holds several entries; their conditions need not be identical. Equal entries are not always repeated.

Tested on: 743489-274-T-PDC complex spheroid growth
Assay: Anticancer human tumor 743489-274-T-PDC patient-derived renal cell carcinoma cell line growth inhibition [AhR]
Details: for viability, T/C: stronger effect = lower value
How it was run: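 Spheroids combined tumor cells with HUVEC endothelial cells and human MSCs as stroma. AhR antagonists were paired with standard or investigational drugs, each dosed in half-log steps down from near clinical Cmax, or from 10 microM where Cmax was unknown.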

[1] = curve of first compound, second compound 0.1 µM
[2] = curve of first compound, second compound 0.316 µM
[3] = curve of first compound, second compound 1 µM
[4] = curve of first compound, second compound 3.16 µM
[5] = curve of first compound, second compound 10 µM
[6] = second compound 0.1 µM, first compound 0.0316 µM
[7] = second compound 0.1 µM, first compound 0.1 µM
[8] = second compound 0.1 µM, first compound 0.316 µM
[9] = second compound 0.1 µM, first compound 1 µM
[10] = second compound 0.1 µM, first compound 3.16 µM
[11] = second compound 0.1 µM, first compound 10 µM
[12] = second compound 0.316 µM, first compound 0.0316 µM
[13] = second compound 0.316 µM, first compound 0.1 µM
[14] = second compound 0.316 µM, first compound 0.316 µM
[15] = second compound 0.316 µM, first compound 1 µM
[16] = second compound 0.316 µM, first compound 3.16 µM
[17] = second compound 0.316 µM, first compound 10 µM
[18] = second compound 1 µM, first compound 0.0316 µM
[19] = second compound 1 µM, first compound 0.1 µM
[20] = second compound 1 µM, first compound 0.316 µM
[21] = second compound 1 µM, first compound 1 µM
[22] = second compound 1 µM, first compound 3.16 µM
[23] = second compound 1 µM, first compound 10 µM
[24] = second compound 3.16 µM, first compound 0.0316 µM
[25] = second compound 3.16 µM, first compound 0.1 µM
[26] = second compound 3.16 µM, first compound 0.316 µM
[27] = second compound 3.16 µM, first compound 1 µM
[28] = second compound 3.16 µM, first compound 3.16 µM
[29] = second compound 3.16 µM, first compound 10 µM
[30] = second compound 10 µM, first compound 0.0316 µM
[31] = second compound 10 µM, first compound 0.1 µM
[32] = second compound 10 µM, first compound 0.316 µM
[33] = second compound 10 µM, first compound 1 µM
[34] = second compound 10 µM, first compound 3.16 µM
[35] = second compound 10 µM, first compound 10 µM
[36] = second compound 0.1 µM, first compound 0.00316 µM
[37] = second compound 0.1 µM, first compound 0.01 µM
[38] = second compound 0.316 µM, first compound 0.00316 µM
[39] = second compound 0.316 µM, first compound 0.01 µM
[40] = second compound 1 µM, first compound 0.00316 µM
[41] = second compound 1 µM, first compound 0.01 µM
[42] = second compound 3.16 µM, first compound 0.00316 µM
[43] = second compound 3.16 µM, first compound 0.01 µM
[44] = second compound 10 µM, first compound 0.00316 µM
[45] = second compound 10 µM, first compound 0.01 µM
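Also: spheroids exposed to agents for 7 days before readout.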
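For viability, T/C in this document: 100% = DMSO vehicle control wells.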

Row | SMILES | IC50 [1] [µM] | IC50 [2] [µM] | IC50 [3] [µM] | IC50 [4] [µM] | IC50 [5] [µM] | viability, T/C [6] [%] | viability, T/C [7] [%] | viability, T/C [8] [%] | viability, T/C [9] [%] | viability, T/C [12] [%] | viability, T/C [13] [%] | viability, T/C [14] [%] | viability, T/C [15] [%] | viability, T/C [18] [%] | viability, T/C [19] [%] | viability, T/C [20] [%] | viability, T/C [21] [%] | viability, T/C [24] [%] | viability, T/C [25] [%] | viability, T/C [26] [%] | also measured
1 | Nc1ccn(C2OC(CO)C(O)C2(F)F)c(=O)n1 (centres undefined) + Cc1ccccc1N=Nc1ccc(NC(=O)c2ccnn2C)c(C)c1 | > 10 | > 10 | 9.15 | 1.48 | > 10 | 65 | 62.7 | 54.7 | 63.4 | 66.4 | 62 | 56.5 | 59.4 | 61 | 57.4 | 65.6 | 56.7 | 68.1 | 55.8 | 51.9 | viability, T/C [10]: 57.1%; viability, T/C [11]: 59.1%; viability, T/C [16]: 54.8%; viability, T/C [17]: 53.1%; viability, T/C [22]: 51.2%; viability, T/C [23]: 50.8%; viability, T/C [27]: 45.5%; viability, T/C [28]: 50.8%; viability, T/C [29]: 52.3%; viability, T/C [30]: 69.9%; viability, T/C [31]: 56.9%; viability, T/C [32]: 51.4%; viability, T/C [33]: 60.6%; viability, T/C [34]: 47.8%; viability, T/C [35]: 55.4%
2 | CC(C)c1c(-c2ccccc2)nc2c(C#N)c[nH]n2c1=O + CC(CO)NC(=O)c1cc(-c2ccc(Cl)cc2)nn(-c2cnn(C)c2)c1=O | > 10 | > 10 | > 10 | > 10 | > 10 | 101 | 96.5 | 101 | 111 | 93 | 97.9 | 99.2 | 93.2 | 94.7 | 90.3 | 97.5 | 90.2 | 90 | 99.5 | 99.9 | viability, T/C [10]: 93.9%; viability, T/C [11]: 102%; viability, T/C [16]: 90.4%; viability, T/C [17]: 102%; viability, T/C [22]: 102%; viability, T/C [23]: 101%; viability, T/C [27]: 96.6%; viability, T/C [28]: 98.3%; viability, T/C [29]: 95%; viability, T/C [30]: 98.9%; viability, T/C [31]: 101%; viability, T/C [32]: 99.7%; viability, T/C [33]: 95.7%; viability, T/C [34]: 95.1%; viability, T/C [35]: 93.8%
3 | COc1ccc([C@@H](O)c2cc(-c3ncnc4cc(N5CCOCC5)ccc34)c(F)cc2Cl)nn1 + CC(CO)NC(=O)c1cc(-c2ccc(Cl)cc2)nn(-c2cnn(C)c2)c1=O | 3.1 | 3.68 | 3.25 | 2.6 | 2.73 | 103 | 96.8 | 92.4 | 86 | 86 | 87.8 | 89.4 | 78.2 | 87.9 | 89.4 | 88.2 | 77.9 | 92.3 | 81.7 | 87.3 | viability, T/C [10]: 48.8%; viability, T/C [11]: 28.8%; viability, T/C [16]: 54%; viability, T/C [17]: 25.2%; viability, T/C [22]: 50.7%; viability, T/C [23]: 25.5%; viability, T/C [27]: 73.9%; viability, T/C [28]: 45%; viability, T/C [29]: 25.7%; viability, T/C [30]: 101%; viability, T/C [31]: 92%; viability, T/C [32]: 93.8%; viability, T/C [33]: 79.3%; viability, T/C [34]: 45.5%; viability, T/C [35]: 20.9%
4 | O=C(C=Cc1cccc(S(=O)(=O)Nc2ccccc2)c1)NO + CC(CO)NC(=O)c1cc(-c2ccc(Cl)cc2)nn(-c2cnn(C)c2)c1=O | 9.26 | 7.72 | 9.6 | 8.29 | 7.34 | 97.6 | 87.1 | 86.9 | 80.3 | 82.4 | 88.5 | 74.4 | 76.9 | 82.5 | 89 | 84 | 75.8 | 82.5 | 80 | 76.2 | viability, T/C [10]: 76.4%; viability, T/C [11]: 47.1%; viability, T/C [16]: 61.8%; viability, T/C [17]: 46.4%; viability, T/C [22]: 62.7%; viability, T/C [23]: 49.4%; viability, T/C [27]: 70.2%; viability, T/C [28]: 59.2%; viability, T/C [29]: 48.3%; viability, T/C [30]: 85.3%; viability, T/C [31]: 87.8%; viability, T/C [32]: 83.2%; viability, T/C [33]: 74.7%; viability, T/C [34]: 66.9%; viability, T/C [35]: 43.9%
5 | CC1COCCN1c1cc(-c2ccnn2C)c2ccnc(-c3ccn[nH]3)c2n1 (centres undefined) + Cc1ccccc1N=Nc1ccc(NC(=O)c2ccnn2C)c(C)c1 | > 1 | > 1 | > 1 | > 1 | > 1 | 93.9 | 95.9 | 88.5 | 78.4 | 89.6 | 93.3 | 99.2 | 75.3 | 92 | 86.5 | 88.2 | 68.1 | 88 | 82.8 | 76.4 | viability, T/C [36]: 92.8%; viability, T/C [37]: 94.4%; viability, T/C [38]: 89.7%; viability, T/C [39]: 101%; viability, T/C [40]: 93.4%; viability, T/C [41]: 98.5%; viability, T/C [42]: 87.6%; viability, T/C [43]: 86.8%; viability, T/C [27]: 76.3%; viability, T/C [44]: 103%; viability, T/C [45]: 94.9%; viability, T/C [30]: 96.2%; viability, T/C [31]: 84.9%; viability, T/C [32]: 73.5%; viability, T/C [33]: 58.6%
6 | CC[C@@]1(O)C(=O)OCc2c1cc1n(c2=O)Cc2cc3c(CN(C)C)c(O)ccc3nc2-1 | – | – | – | – | – | – | – | – | – | – | – | – | – | – | – | – | – | – | – | – | viability, T/C (compound 0.000316 µM): 109% and 97.4% and 106%; viability, T/C (compound 0.001 µM): 110% and 94.7% and 90.2%; viability, T/C (compound 0.00316 µM): 107% and 97.5% and 93.5%; viability, T/C (compound 0.01 µM): 100% and 103% and 93.5%; viability, T/C (compound 0.0316 µM): 95% and 105% and 97.2%; viability, T/C (compound 0.1 µM): 96.3% and 83.8% and 91.8%; IC50 (curve of compound): > 0.1 µM
7 | COc1cc(C2c3cc4c(cc3C(OC3OC5COC(C)OC5C(O)C3O)C3COC(=O)C23)OCO4)cc(OC)c1O (centres undefined) | – | – | – | – | – | – | – | – | – | – | – | – | – | – | – | – | – | – | – | – | viability, T/C (compound 0.0316 µM): 98.8% and 103% and 94.7%; viability, T/C (compound 0.1 µM): 105% and 103% and 102%; viability, T/C (compound 0.316 µM): 95.7% and 114% and 106%; viability, T/C (compound 1 µM): 94.6% and 100% and 98.3%; viability, T/C (compound 3.16 µM): 95.8% and 108% and 98.9%; viability, T/C (compound 10 µM): 80% and 91.7% and 92.8%; IC50 (curve of compound): > 10 µM
8 | Nc1ncn(C2CC(O)C(CO)O2)c(=O)n1 (centres undefined) + Cc1cncc(-c2nc(NCCc3c[nH]c4ccccc34)c3ncn(C(C)C)c3n2)c1 | > 1 | > 1 | > 1 | > 1 | > 1 | 104 | 95.1 | 92 | 96 | 93.5 | 96.3 | 94.8 | 94.4 | 98.5 | 93 | 106 | 93.7 | 104 | 100 | 103 | viability, T/C [36]: 105%; viability, T/C [37]: 98.7%; viability, T/C [38]: 99.4%; viability, T/C [39]: 99.8%; viability, T/C [40]: 109%; viability, T/C [41]: 107%; viability, T/C [42]: 104%; viability, T/C [43]: 108%; viability, T/C [27]: 98.4%; viability, T/C [44]: 113%; viability, T/C [45]: 114%; viability, T/C [30]: 131%; viability, T/C [31]: 109%; viability, T/C [32]: 107%; viability, T/C [33]: 120%
